Measurements: patent US10264976B2, “Biocompatible flavonoid compounds for organelle and cell imaging” (The University of Akron, priority 2015, dated 2019)

Key:
[1] = system: mitochondria in CCCP-treated hMSCs; assay: Effects of CCCP on uptake of dyes; assay type: cell-based, human; settings: for specificity to mitochondria after CCCP treatment / uptake / imaging signal (sensitivity) after CCCP treatment: hMSCs pre-treated with 10 μM CCCP for 30 min, 5 μM dye, 25 nM MT, 25 min
Source text: Mitochondria can continuously oxidize substrates and maintain a proton gradient across the lipid bilayer with very large membrane potential (−180 mV). The membrane potential as the major driving force enables the entrance and accumulation of the cationic species into mitochondria rather than cell plasma. CCCP is an uncoupler that causes rapid acidification of mitochondria and dysfunction of ATP synthase resulting in the decrease of mitochondrial membranes potential. To confirm the tolerances of MC-Mito1 and MC-Mito2, carbonyl cyanide m-chlorophenylhydrazone (CCCP) was used to treat the cells prior to the staining procedure.
It was expected because CCCP-induced decrease of membranes potential will severely affect the direction and accumulation of cationic mitochondrial probes. The most of commercial mitochondrial probes are suffered by the similar limitation. […] Compared with MC-Mito1, MC-Mito2 has longer hydrophobic linker between the flavone dye and the cation. Since mitochondrial membrane is composed of phospholipid bilayers and proteins, the stronger lipophilicity has been supposed to play an important role in retaining the specificity of MC-Mito2 in CCCP-treated cells.
The hMSCs were treated with 10 μM carbonyl cyanide m-chlorophenylhydrazone (CCCP) for 30 min. and then were washed with fresh medium. After that, the cells were incubated with 5 μM MC-Mito1 and 25 nM MT, 5 μM MC-Mito2 and 25 nM MT for 25 min at 37° C., respectively. After staining, the cells were imaged by microscope without PBS solution washing procedure.

[2] = system: mitochondria in hMSCs; assay: Co-staining with Mitotracker red CMXRos (subcellular distribution); assay type: cell-based, human; settings: 5 μM dye and 25 nM MT, 25 min
Protocol: To determine the subcellular distribution of the probes in living cells, the MT were co-incubated with MC-Mito1 and MC-Mito2, respectively. […] Despite that the decrease of membranes potential will severely affect the direction and accumulation of cationic mitochondrial probes.
Human mesenchymal stem cells (hMSCs) (Lonza, Walkersville, Md.) were cultured in serum-containing MSCBM medium (Lonza) supplemented with MSCGM SingleQuots (Lonza) according to manufacturer's specifications. hMSCs (Passage 5) were seeded at a density of 5.0×10^4 cell/cm^2. For co-staining experiments, the hMSCs were seeded on 12-well plate, cultured in MSCBM medium (Lonza) supplemented with MSCGM SingleQuots (Lonza), and incubated with 5 μM MC and 25 nM Mitotracker® red CMXRos (MT), 5 μM MC-Br and 25 nM MT, 5 μM MC-Mito1 and 25 nM MT, 5 μM MC-Mito2 and 25 nM MT for 25 min at 37° C., respectively. Each well contains 1 ml of medium and 0.05 ml DMSO (dissolving probe). The cell imaging was obtained on a Zeiss inverted fluorescence microscopy with X-Cite Series 120Q. The blue channel filter: excitation 365 nm, beam splitter FT 395 nm, emission 445/50 nm. The green channel filter: excitation 450-490 nm, beam splitter FT 510 nm, emission 515-565 nm. The red channel filter: excitation 587/25 nm, beam splitter FT 605 nm, emission 647/70 nm.

[3] = target: bovine serum albumin (BSA) (Bos taurus, UniProt P02769); assay: Fluorescence response upon addition of bovine serum albumin; assay type: binding; settings: 2 equivalents of BSA; 2 μM probe, 1 mM HEPES buffer (1% DMSO); at 495 nm (MC-Mito1) / 490 nm (MC-Mito2)
Chain of bovine serum albumin (BSA) (P02769 25-607): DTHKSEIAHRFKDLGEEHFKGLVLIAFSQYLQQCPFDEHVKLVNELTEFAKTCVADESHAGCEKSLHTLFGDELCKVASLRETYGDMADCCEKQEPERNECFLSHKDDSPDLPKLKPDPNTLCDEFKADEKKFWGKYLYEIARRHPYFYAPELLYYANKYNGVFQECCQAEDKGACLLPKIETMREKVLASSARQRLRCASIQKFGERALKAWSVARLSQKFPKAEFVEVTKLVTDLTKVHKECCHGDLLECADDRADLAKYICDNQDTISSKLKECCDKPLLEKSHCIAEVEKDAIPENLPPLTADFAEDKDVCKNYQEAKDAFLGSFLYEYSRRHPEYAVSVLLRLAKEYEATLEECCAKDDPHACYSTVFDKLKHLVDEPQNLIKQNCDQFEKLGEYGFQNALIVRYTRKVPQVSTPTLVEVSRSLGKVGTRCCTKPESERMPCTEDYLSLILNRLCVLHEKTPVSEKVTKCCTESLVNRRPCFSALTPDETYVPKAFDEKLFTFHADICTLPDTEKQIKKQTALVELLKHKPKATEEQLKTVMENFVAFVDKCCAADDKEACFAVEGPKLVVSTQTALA
Protocol: FIG. 4B provides a graph showing the fluorescence intensity changes of MC-Mito1 in the presence of increasing concentrations of BSA in 1 mM HEPES buffer (1% DMSO). [MC-Mito1]=[MC-Mito2]=2 μM, [BSA]=0˜4 μM. λex=400 nm.
FIG. 11 is a chart showing fluorescence spectra of DMAF ([DMAF]=10 μM, 1 mM HEPES buffer containing 1% DMSO, pH=7.4) upon addition of different concentration of BSA ([BSA]=0-10 μM, 1 mM HEPES).
MC-Mito1 and MC-Mito2 were nearly non-fluorescent in water (QYs <1%), due to specific H-bonding interaction of water solvents with H-bond acceptor carbonyl groups in flavone skeleton. However, upon addition of bovine serum albumin (BSA) into probe water solution, the fluorescence intensity increased sharply (FIG. 4A-D). After addition of 2 equivalent of BSA, the fluorescence intensity of MC-Mito1 at 495 nm was enhanced by about 17-fold, which was accompanied with a large blue-shift (from 540 nm to 495 nm, FIGS. 4A and 4B). […] By using rhodamine 6G in ethanol (QY=95%) as a reference, the fluorescence quantum yield (QY) of MC-Mito1 and MC-Mito2 were determined to be 28% and 33%, respectively. […] The high signal-to-noise ratio (>10) enables the simple wash-free in vivo fluorescence imaging. […]

[4] = UV absorption and fluorescence spectra of the dyes; settings: for Stokes shift: in DMSO; for absorption maxima / emission maxima: in DMSO solution
[5] = Fluorescence quantum yield (rhodamine 6G standard); assay type: physicochemical; settings: rhodamine 6G in ethanol as reference; reported after BSA addition experiment
Source text: The fluorescence quantum yields were obtained using rhodamine 6G (sigma) as the standard (Φfl=0.95, ethanol). The fluorescence quantum yields can be calculated by using the following Eq: Φs=Φr×(Ar×ns^2×Fs)/(As×nr^2×Fr) where the subscripts s and r refer to the sample and the standard, respectively. Φ is the quantum yield, F is the integrated emission intensity, A is the absorbance, and n is the refractive index. Zebrafish Breeding and Imaging

[6] = system: hMSCs; assay: Cytotoxicity determined by MTT method; assay type: cell-based, human; settings: for cell viability: hMSCs, 0, 2, 5, 10 μM, 24 h
Protocol: Before the application for cell imaging, the cytotoxicity of MC-Mito1 and MC-Mito2 were evaluated by the widely used MTT assay to evaluate the tolerance of sensors to their working concentrations. The samples were incubated with 0, 2, 5, 10 μM MC-Mito1, MC-Mito2 and Mitotracker® red CMXRos (MT) for 24 h, respectively (FIG. 5). […] In contrast, only less than 10% of the cells were viable after incubation with 5 μM of commercial mitochondrial dye MT for 24 hours. […] The hMSCs were seeded in 12-well plates at a density of 5.0×10^4 cell/cm^2. After 24 h incubation, the cells were exposed to a series of doses of probe MC-Mito1 or MC-Mito2, and MT at 37° C. The concentration of MT (0, 2, 5, 10 μM) was similar as reported in literature.^28 After 24 hours, MTT solution (sigma) was added and kept 3 h in the incubator. MTT solubilization solution was then added into each well and the plate was gently shaken for 10 min at room temperature. The absorbance of MTT in the sample well was determined by subtracting the absorbance of the sample well from corresponding control well. Cell viability was expressed by the ratio of the absorbance of MTT in the sample wells to that of the cells incubated with culture medium only.

[7] = system: hMSCs; assay: Cell staining efficiency without washing process; assay type: cell-based, human
Protocol: To assess their cell staining efficiencies, the hMSCs cells were incubated with MT, MC-Mito1 and MC-Mito2, respectively. Cell staining was continuously recorded in 3 min, 10 min and 25 min without washing process. It was found MC-Mito1 and MC-Mito2 quickly stained the living cells in 10 mins. In contrast, the MT acquired longer time to efficiently stain cells. The fluorescence signal of MC-Mito1 and MC-Mito2 from the ‘blue channel’ on fluorescence microscope (420-470 nm) were confined in cells with a negligible background signal from the culture medium, supporting the hypothesis that the flavone dyes gave higher emission in low-polar environment. Generally, the S/N ratios in fluorescent images were above 3, which could be considered acceptable for the discrimination of mitochondria. Therefore, this wash-free method could be a useful probe for real-time monitor of mitochondrial changes.
Human mesenchymal stem cells (hMSCs) (Lonza, Walkersville, Md.) were cultured in serum-containing MSCBM medium (Lonza) supplemented with MSCGM SingleQuots (Lonza) according to manufacturer's specifications. hMSCs (Passage 5) were seeded at a density of 5.0×10^4 cell/cm^2. […] The cell imaging was obtained on a Zeiss inverted fluorescence microscopy with X-Cite Series 120Q. […]

Compound: N#CC(C#N)=NNc1cccc(Cl)c1 [CCCP, carbonyl cyanide m-chlorophenylhydrazone, reference compound]
- mitochondrial morphology ([1]; hMSCs, 10 μM CCCP for 30 min): mostly transformed to small and dispersed fragments

Compound: O=c1c(O)c(-c2ccc(N3CCOCC3)cc2)oc2ccccc12 [MC, 3-hydroxy-2-(4-morpholinophenyl)-4H-chromen-4-one]
- co-localization with MT (mitochondria) [2]: almost no co-localization with MT

Compound: O=c1c(OCCCCCCBr)c(-c2ccc(N3CCOCC3)cc2)oc2ccccc12 [MC-Br, 3-(6-bromohexyloxy)-2-(4-morpholinophenyl)-4H-chromen-4-one]
- co-localization with MT (mitochondria) [2]: almost no co-localization with MT

Compound: O=c1c(OCCC[P+](c2ccccc2)(c2ccccc2)c2ccccc2)c(-c2ccc(N3CCOCC3)cc2)oc2ccccc12.[Br-] [MC-Mito1, (3-(2-(4-morpholinophenyl)-4-oxo-4H-chromen-3-yloxy)propyl)triphenylphosphonium bromide]
- fluorescence intensity enhancement [3]: about 17 fold
- Stokes shift [4]: ~127 nm
- absorption maxima [4]: 373 nm
- emission maxima [4]: 500 nm
- fluorescence quantum yield (QY) [5]: 28%
- co-localization with MT (mitochondria) [2]: matched those stained with MT (red channel) very well
- cell viability [6]: ~100%
- specificity to mitochondria after CCCP treatment [1]: almost no more specificity to mitochondria
- uptake / imaging signal (sensitivity) after CCCP treatment [1]: extremely weaker imaging signal than that in normal cells

Compound: O=c1c(OCCCCCC[P+](c2ccccc2)(c2ccccc2)c2ccccc2)c(-c2ccc(N3CCOCC3)cc2)oc2ccccc12.[Br-] [MC-Mito2, (6-(2-(4-morpholinophenyl)-4-oxo-4H-chromen-3-yloxy)hexyl)triphenylphosphonium bromide]
- fluorescence intensity enhancement [3]: about 55 fold
- Stokes shift [4]: ~127 nm
- absorption maxima [4]: 373 nm
- emission maxima [4]: 500 nm
- fluorescence quantum yield (QY) [5]: 33%
- co-localization with MT (mitochondria) [2]: matched well with MT
- cell viability [6]: ~100%
- specificity to mitochondria after CCCP treatment [1]: perfectly retained
- uptake / imaging signal (sensitivity) after CCCP treatment [1]: perfectly retained

Compound: ClCc1ccc(C2=c3cc4c5c(c3Oc3c2cc2c6c3CCCN6CCC2)CCC[N+]=5CCC4)cc1.[Cl-] [MT, reference compound]
- time to stain living cells [7]: longer time
- viable cells ([6]; hMSCs, 5 μM, 24 hours): less than 10%
- specificity to mitochondria after CCCP treatment [1]: specificity became worse
- uptake / imaging signal (sensitivity) after CCCP treatment [1]: decreased by more than half
